In US10213451B2, “Methods and compounds for modulating the secretion or expression of adhesion proteins or angiopoietins of cells” (PACIFIC ARROW LIMITED, priority 2004, dated 2019):
In brackets after ≈: the same amount, converted by molar mass.

Columns and labels:
[1] = tested on: Leishmania Major (promastigotes); test: Cell growth of Leishmania parasites by MTT assay; assay type: cell-based; details: read-out: IC50, cytotoxic to Leishmania Major (promastigotes)
Method: Method: Leishmania parasites (Leishmania major: MRHO/SU/59/P/LV39) were grown in culture medium in a T75 flask at room temperature. Promastigotes of Leishmania major (approximately 40 million per ml) were used in the experiment. 1.2 ml cell culture was transferred to a well of the 24-wells plate. Saponin Y10 (0.2 ml in medium) with different concentrations (final 6.25-200 ug/ml) was added to culture and cells were grown for 1-5 days at room temperature. At the end of drug-treatment, 150 ul of MTT (5 mg/ml in PBS) was added to each well and incubated for 4 hours. Formazan formed in cells was dissolved with DMSO and the OD at 490 nm was determined by an ELISA reader.

human red blood cells = test: Hemolytic activity; assay type: cell-based; details: FIG. 3D
Method: Methods: • Human whole blood was obtained from the Houston Gulf Coast Blood Center. • Red blood cells were isolated by the following method: Human blood (in EDTA) was diluted 1:1 with PBS, underlay with 4 mL of Histopaque-1077 (SIGMA) and was centrifuged at 400 g for 30 min. • Red blood cells (RBC) were collected and washed three times with PBS. • 10% suspensions of RBC were prepared with PBS before use. • 50 μL of RBC suspension was added to 2 mL of saponins with different concentration. • The suspension was mixed by vortexing then left to sit at room temperature for 60 minutes. • The suspension was centrifuged at 3000 rpm for 5 min. Absorbance of the supernatant was measured at 540 nm.

tumor growth = test: MTT anticancer activity of Y, X and hydrolysis products (FIG. 4C); assay type: cell-based
Method: (§1) MTT Assay. The procedure for MTT assay followed the method described by Carmichael et al. (1987) with modifications. The cells were seeded into a 96-well plate at concentration of 10,000/well for HTB-9, HeLa, H460, HCT116, T98G and OVCAR-3), 15,000/well for DU145, MCF-7, HepG2 and U2OS), and 40,000/well for K562 for 24 hours before drug-treatment. The cells were then exposed to the drugs for 48 hours (72 hours for HepG2 and U2OS, and 96 hours for MCF-7). After the drug-treatment, MTT (0.5 mg/mL) was added to cultures and incubated for an hour. The formazan (product of the reduction of tetrazolium by viable cells) formed and was dissolved with DMSO and the O.D. at 490 nm, and was measured by an ELISA reader. The MTT level of the cells before drug-treatment was also measured (T0). The % cell-growth (% G) is calculated as: % G=(TD−T0/TC−T0)×100(1), where TC or TD represents O.D. readings of control or drug-treated cells. When T0>TD, then the cytotoxicity (LC) expressed as % of the control is calculated as: % LC=(TD−T0/T0)×100(2).
(A) Alkaline Hydrolysis of Xanifolia-Y: 20 mg of Xanifolia-Y was dissolved in 0.5 mL of 1M NaOH. The solution was incubated in an 80° C. water bath for 4 hours. It was cooled to room temperature before being neutralized with 0.5 mL 1 N HCl (adjusted pH to about 3). The mixture was extracted with 2 mL 1-butanol 3 times. The butanol fractions were collected and lyophilized. The hydrolyzed saponin was further purified with HPLC in a C-18 column eluted with 25% acetonitrile.
(B) Acid Hydrolysis of Xanifolia-Y: 15 mg Xanifolia-Y was dissolved in 1 mL of Methanol. 1 mL of 2N HCl was then added. The mixture was refluxed in an 80° C. water bath for 5 hours. The solution was then neutralized by adding 2 mL of 1N NaOH (to a final pH 3-4). The aglycone was then extracted with ethylacetate 3 mL×3. The extracts were collected and pooled. Further isolation of aglycone (sugar-removed Xanifolia-Y) was achieved by HPLC with isocratic elution of 80% acetonitrile.

[2] = tested on: Fibronectin secretion from ES2 cells; test: Fibronectin secretion (Western blot), ES2 cells; assay type: cell-based, human; details: for % inhibition of Fibronectin secretion: ES2 cells, 80 ug/ml
Method: Inhibition of Fibronectin secretion is physiological and the determination of its quantity is based on the following criteria: • 1. Fibronectin is secreted from viable cells. Only cell with over 85% viable cells after drug-treatment are employed in these experiments. The viable cells were determined by MTT assay. • 2. For comparison, the immuno-band intensity from each samples are normalized with cell mass. The cell mass was determined by the MTT assay and is assigned as a MTT unit for each cell sample.
Cells: ES2 cells were grew in T-25 flask with RPMI 1640 medium over night before drug-treatment. Drug-treatment: cells cultures were replaced with fresh RPMI medium with Xanifolia-Y (10 ug/ml final concentration) or DMSO (as control) at 0 hour. At 1, 2, 4, 8 and 24 hour, aliquot of culture medium was taken out for Fibronectin determination. Fibronectin was determined by Western blot with monoclonal antibody (SIGMA) specific to human Fibronectin only.
Drug-treatment: cells cultures were replaced with fresh RPMI medium containing Xanifolia-Y (10 ug/ml final concentration) or DMSO (as control) at 0 hour. At 4 hours (A) or 8 hour (B), culture medium was replaced with fresh culture medium without drug. At 2, 4, 8 and 24 hour, aliquot of culture medium was taken out for Fibronectin determination. Fibronectin (FN) was determined by Western blot with monoclonal antibody (SIGMA) specific only to human Fibronectin.
Drug-treatment: cells cultures were replaced with fresh RPMI medium containing Xanifolia-Y (10 ug/ml final concentration) or DMSO (as control) at 0 hour. At 2, and 18 hour, aliquot of culture medium was taken out for Fibronectin determination (Western blot method). Cell viability at 18 hours was determined by MTT assay. Cultures were replaced with RPMI medium with MTT and incubated for an hour. The formation of formazan was dissolved in DMSO and OD at 570 nm was measured.
Cells and Drug-treatment: same as previous experiments. After 7 or 24 hours, aliquot of culture medium was taken out for Fibronectin determination (Western blot method). Cell viability at 24 hours was determined by MTT assay.
Cells: ES2 cells were grew in RPMI 1640 medium over night before drug-treatment. Drug-treatment: cells cultures were replaced with fresh RPMI medium containing DMSO (as control) [D]; Xanifolia-Y (10 ug/ml) [Y]; or Paclitaxel 10 or 50 ng/ml [T10, ro T50]. After 24 hours, aliquot of culture medium was taken out for Fibronectin determination (Western blot method). Cell viability at 24 hours was determined by MTT assay.
The amount of Fibronectin secreted by cells into medium was determined by Western blot assay. The amount of Fibronectin secreted per cells basis was determined by dividing the Western-band intensity with the MTT unit.
Western Blot: Spent culture medium (0.6 ml) was mixed with SDS sample buffer (0.2 ml), boiled for 3 minutes before loading to SDS gel. Samples (60 ul/lane) were applied to a 6% SDS gel and electrophoresis was conducted with 100 volts for 2 hours. Protein was transferred to a nitrocellulose paper electrophoretically (30 min at 100 volts). The Western blot was incubated with the first antibody (mouse anti-FN, specific to human FN, SIGMA F0916) and second antibody (Anti-mouse IgG AP conjugated, Promega S3721). The immunobands were developed with BCIP/NBT color development system (Promega S3771).

K562 cells membrane = test: EM study of membrane structure; assay type: cell-based, human; details: 20 uM, 60 min
Source text: Xanifolia-Y has a potent hemolytic activity in red blood cells (FIG. 27). To study the effect of Xanifolia-Y on membrane structure, the morphology of cell membrane treated with Xanifolia-Y was examined with EM. […] Solvent DMSO and AKOH-Y (a derivative of Xanifolia-Y without the angeloyl group and it has no activity) served as controls. Cells were negative stained with 1% UAc and subsequently examined with EM.

[3] = tested on: Fibronectin secretion from liver HepG2 cells; test: Fibronectin secretion (Western blot), HepG2 cells; assay type: cell-based, human
ES2(ovarian) cells = test: MTT assay ES2; assay type: cell-based, human; details: Homo sapiens, ES-2, ES2 cells; read-out: IC50
(brain) T98G = test: MTT assay T98G; assay type: cell-based; details: Homo sapiens
Method: (§2) Cells. Human cancer cell lines were obtained from American Type Culture Collection: HTB-9 (bladder), HeLa-S3 (cervix), DU145 (prostate), H460 (lung), MCF-7 (breast), K562 (leukocytes), HCT116 (colon), HepG2 (liver), U2OS (bone), T98G (brain), SK-MEL-5 (Skin) and OVCAR-3 (ovary). The cells were grown in following culture media: HeLa-53, DU145, MCF-7, Hep-G2 and T98G are in MEN (Earle's salts); HTB-9, H460, K562 and OVCAR-3 in RPMI-1640; HCT-116 and U2OS in McCoy-5A. They are supplemented with 10% fetal calf serum, glutamine and antibiotics, and incubated in an incubator with 5% CO2 humidified at 37° C.
(§3) MTT Assay. The procedure for MTT assay followed the method described by Carmichael et al. (1987) with modifications. […] The formazan (product of the reduction of tetrazolium by viable cells) formed and was dissolved with DMSO and the O.D. at 490 nm, and was measured by an ELISA reader. The MTT level of the cells before drug-treatment was also measured (T0). The % cell-growth (% G) is calculated as: % G=(TD−T0/TC−T0)×100(1), where TC or TD represents O.D. readings of control or drug-treated cells. When T0>TD, then the cytotoxicity (LC) expressed as % of the control is calculated as: % LC=(TD−T0/T0)×100(2).

(Prostate) DU145 = test: MTT assay DU145; assay type: cell-based, human; details: Homo sapiens, DU-145, read-out: IC50
Method: as §2, §3

[4] = tested on: Fibronectin secretion from bladder carcinoma cells (HTB-9); test: Fibronectin secretion (Western blot), HTB-9 cells; assay type: cell-based, human; details: Homo sapiens, 10 ug/ml
(Liver) HepG2 = test: MTT assay HepG2; assay type: cell-based, human; details: Homo sapiens, read-out: IC50
Method: as §2, §3

[5] = tested on: Fibronectin secretion from lung carcinoma cells (H460); test: Fibronectin secretion (Western blot), H460 cells; assay type: cell-based, human; details: Homo sapiens, NCI-H460, H460 cells, 10 ug/ml
[6] = tested on: (bladder)TB9 cells / HTB-9; test: MTT assay bladder cells; assay type: cell-based, human; details: Homo sapiens; (bladder)TB9 cells; read-out: IC50
Method: as §2, §1

[7] = tested on: Fibronectin secretion from brain glioblastoma T98G cells; test: Fibronectin secretion (Western blot), T98G cells; assay type: cell-based, human; details: Homo sapiens, T98G, 10 ug/ml
(lung)H460 cells = test: MTT assay H460; assay type: cell-based; details: Homo sapiens, NCI-H460
Method: as §2, §3

(Breast)MCF7 = test: MTT assay MCF7; assay type: cell-based, human; details: Homo sapiens, read-out: IC50
Method: as §2, §3

(Skin) SK-MELS = test: MTT assay SK-MEL-5; assay type: cell-based, human; details: Homo sapiens, SK-MEL-5, read-out: IC50
Method: as §2, §3

[8] = tested on: Fibronectin secretion from skin SK-Mel-5 cells; test: Fibronectin secretion (Western blot), SK-MEL-5 cells; assay type: cell-based, human; details: Homo sapiens, 10 ug/ml

`C/C=C(/C)C(=O)O[C@H]1[C@H](OC(=O)/C(C)=C\C)[C@@]2(CO)C(CC1(C)C)C1=CCC3[C@@]4(C)CC[C@H](O[C@@H]5OC(C(=O)O)[C@@H](O)[C@@H](O[C@@H]6O[C@@H](CO)[C@@H](O)C6O)C5O[C@@H]5OC(CO)[C@H](O)[C@@H](O)C5O)C(C)(C)C4CC[C@@]3(C)[C@]1(C)C[C@H]2O` (stereo partly drawn) [Xanifolia Y10, 3-O-[β-galactopyranosyl (1→2)]-α-arabinofuranosyl (1→3)-β-glucuronopyranosyl-21, 22-O-diangeloyl-3β, 16α, 21β, 22α, 28-pentahydroxyolean-12-ene] showed an IC50 [1] of ~15 µg/mL (≈ 13.3 µM).
With `CC1(C)CC2C3=CCC4[C@@]5(C)CC[C@H](O[C@@H]6OC(C(=O)O)[C@@H](O)[C@@H](O[C@@H]7O[C@@H](CO)[C@@H](O)C7O)C6O[C@@H]6OC(CO)[C@H](O)[C@@H](O)C6O)C(C)(C)C5CC[C@@]4(C)[C@]3(C)[C@@H](O)[C@@H](O)[C@@]2(CO)[C@@H](O)[C@@H]1O` (stereo partly drawn) [AKOH-Y] the “hemolytic activity of hydrolysed products of compound Y” value (human red blood cells) was “destroyed the hemolytic activity”, the “anticancer activity after alkaline hydrolysis” value (tumor growth) was “lost anticancer activity” and the “MTT activities of hydrolysed products of compound Y” value (tumor growth; FIG. 4C, 4D) was “lost MTT activities”. The anticancer activity (tumor growth; FIG. 4C, even at 120 μg/ml) was “completely abolishes its anticancer activity”, the anticancer activity (tumor growth; even at 120 ug/ml) was “completely abolishes its anticancer activity” and the “% inhibition of Fibronectin secretion” value [2] was “no effect”. For the same compound, the “% inhibition of Fibronectin secretion” value ([2]; listed as AKOH) was “no effect”, the “membrane morphology (EM): patches of pits” value (K562 cells membrane) was “not” and the “inhibition effect on Fibronectin secretion” value ([3]; HepG2 cells, 80 ug/ml) was “Minimum or No effect”.
`C/C=C(/C)C(=O)O[C@H]1[C@H](OC(=O)/C(C)=C\C)[C@@]23C(CC1(C)C)[C@]1(CCC4[C@@]5(C)CC[C@H](O)C(C)(C)C5CC[C@@]4(C)[C@]1(C)C[C@H]2O)O[C@@H]3O` (stereo partly drawn) [ACH-Mb5] showed an IC50 (ES2(ovarian) cells) of 8 µg/mL (≈ 11.9 µM), an IC50 ((brain) T98G) of 6 µg/mL (≈ 8.94 µM) and an IC50 ((Prostate) DU145) of 6.4 µg/mL (≈ 9.54 µM). It also gave an inhibition at 10 µg/mL [4] of 30%, an IC50 ((Liver) HepG2) of 4 µg/mL (≈ 5.96 µM) and an inhibition at 10 µg/mL [5] of 22%. The IC50 [6] was 5.7 µg/mL (≈ 8.5 µM), the inhibition at 10 µg/mL [7] was 35% and the inhibition at 10 µg/mL ([2]; Homo sapiens, ES-2, ES2 cells, 10 ug/ml) was 30%. The IC50 ((lung)H460 cells) was 6.5 µg/mL (≈ 9.69 µM), the inhibition at 10 µg/mL ([3]; Homo sapiens, HepG2, HepG2 cells, 10 ug/ml) was 25% and the IC50 ((Breast)MCF7) was 13 µg/mL (≈ 19.4 µM). For the same compound, the IC50 ((Skin) SK-MELS) was 22 µg/mL (≈ 32.8 µM) and the inhibition at 10 µg/mL [8] was 20%.
